Measured values from US10751378B2, “Pharmaceutical composition comprising Pistacia weinmannifolia extract, fraction of same or compound separated from same for preventing or treating chronic obstructive pulmonary disease (COPD)” (Korea Research Institute of Bioscience and Biotechnology, priority 2014, dated 2020).

Key:
H292 cells = assay: Cytotoxicity test: H292 cell viability (CCK-8); assay type: cell-based, human; conditions: 24 hours, negative control (0.2% DMSO) = 100%
Protocol: To confirm the cytotoxicity of a Pistacia weinmannifolia extract, a fraction thereof, and a compound isolated therefrom, which were prepared and extracted in Example 1, experiments were performed by applying the method described in the existing references (Ishiyama et al., Talanta, 44, pp. 1299-1305, 1997; Tominaga et al., Anal. Commun., 36, pp. 47-50, 1999).
H292 (CRL-1848) was purchased from the American Type Culture Collection (ATCC). The H292 cells were cultured in RPMI medium (SH30027.01, RPMI 1640, Gibco) containing 10% fetal bovine serum and antibiotics, and cultured in the condition of humidified 5% CO2 atmosphere at 37° C. TNF-α was purchase from a company (300-01A, Peprotech, USA) and used.
The cells in a medium (GM) were placed in a 96-well plate at a density of (1×10^3 cells/well). After 24 hours, the cells were cultured along with a sample for one day. The cell viability rate was read via trivalues according to the manufacturer's manual using the Cell Counting Kit-8 (CK04-01, Dojindo Molecular Technologies, ML). The absorbance was measured using the VERSAmax microplate reader (SMP500-14915, Molecular Devices, USA) and the measured absorbance was converted into a cell number via a standard curve.
H292 cells, human mucosa cells of lung cancer, were suspended in RPMI medium (Gibco) containing 10% fetal bovine serum in a concentration of 5×10^4 cells/mL, inoculated to a 96 well-plate in an amount of 100 μL per each well, and allowed to be attached thereto for 12 hours. Six active fractions of Pistacia and 3 single compounds (PW11, PW12, and PW13) were treated according to concentrations, and cultured for 24 hours. As explained in the cell counting CCK-8 kit (Dojindo Molecular Technologies, ML), the CCK-8 solution (10 μL) was mixed with the medium (90 μL). The mixture (100 μL) was added to each well, reacted for the minimum 30 minutes to the maximum 4 hours, and the absorbance was measured at 570 nm. The cell viability was calculated according to Equation 1 above with reference to the negative control, which was treated with DMSO in a concentration of 0.2%, set at 100%. Cell Viability (%)=[value at OD 570 nm after treatment with an extract/value at OD 570 nm (negative control)]×100 [Equation 1]

MUC5AC = assay: Inhibition of MUC5AC protein production induced by TNF-α (immunoassay of supernatant); assay type: cell-based; conditions: TNF-α 20 ng/mL; for inhibition at 0.125 µM / inhibition at 0.25 µM / inhibition at 0.5 µM / inhibition at 1 µM: read-out: Inhibition Rate (%) of MUC5AC production
Description: To analyze the effects of the Pistacia weinmannifolia extract, a fraction thereof, and a compound isolated therefrom, prepared and extracted in Example 1, on the prevention and treatment of inflammatory diseases such as COPD, the inhibitory effect of the Pistacia weinmannifolia extract, a fraction thereof, and a compound isolated therefrom against the secretion of a related protein, MUC5AC. In this regard, to confirm the inhibitory effect of the samples in Examples on the production of MUC5AC protein, experiments were performed using the method described in the reference (Sikder, M A. et al., Phytotherapy research: PTR. 28, 62-8, 2014).
The supernatant, which was recovered for the immunoassay of the produced MUC5AC, was aliquoted into a 96 well-plate in an amount of 50 μL and dried in a homeostat set at 50° C. The resultant was washed with PBS containing 1% BSA, reacted with MUC5AC antibody (ab3649, abcam) at room temperature for one hour, and aliquoted with the secondary antibody and reacted for one hour. The resultant was rewashed, reacted with 3,3′,5,5′-tetramethylbenzidine peroxide solution (54827-17-7, Sigma-Aldrich) for 20 minutes, and the reaction was stopped with a sulfuric acid solution and the coloration was measured at 450 nm using a microplate reader (VERSAmax microplate reader, SMP500-14915, Molecular Devices, USA).

SMILES | H292 Cell Viability Rate (%, Mean ± SD) (H292 cells; 0.125 μM) [%] | H292 Cell Viability Rate (%, Mean ± SD) (H292 cells; 0.25 μM) [%] | H292 Cell Viability Rate (%, Mean ± SD) (H292 cells; 0.5 μM) [%] | H292 Cell Viability Rate (%, Mean ± SD) (H292 cells; 1 μM) [%] | Amount of MUC5AC Secretion (Relative % to TNF-α Treated Group) (MUC5AC; Conc. 0.125 μM) [%] | inhibition at 0.125 µM (MUC5AC; Conc. 0.125 μM) [%] | Amount of MUC5AC Secretion (Relative % to TNF-α Treated Group) (MUC5AC; Conc. 0.25 μM) [%] | inhibition at 0.25 µM (MUC5AC; Conc. 0.25 μM) [%] | Amount of MUC5AC Secretion (Relative % to TNF-α Treated Group) (MUC5AC; Conc. 0.5 μM) [%] | inhibition at 0.5 µM (MUC5AC; Conc. 0.5 μM) [%] | Amount of MUC5AC Secretion (Relative % to TNF-α Treated Group) (MUC5AC; Conc. 1 μM) [%] | inhibition at 1 µM (MUC5AC; Conc. 1 μM) [%]
O=C(/C=C/c1ccc(Oc2ccc(/C=C/C(=O)c3ccc(O)cc3O)cc2O)cc1)c1ccc(O)cc1O [Compound PW12] | 95.80 ± 2.90 | 96.47 ± 3.21 | 104.50 ± 1.32 | 115.88 ± 0.50 | 75.77 ± 7.66 | 24.2 | 74.23 ± 12.98 | 25.8 | 69.50 ± 5.37 | 30.5 | 69.74 ± 8.56 | 30.3
O=C(/C=C/c1ccc(Oc2ccc([C@@H]3[C@@H](C(=O)c4ccc(O)cc4O)[C@H](C(=O)c4ccc(O)cc4O)[C@H]3c3ccc(O)cc3)cc2O)cc1)c1ccc(O)cc1O [Compound PW13, di-(2,4-dihydroxybenzoyl)-(3,4-dihydroxyphenyl)-(4-hydroxyphenyl)-cyclobutane-3-O-4′-bichalcone] | 104.80 ± 2.34 | 103.53 ± 3.07 | 126.28 ± 7.75 | 71.92 ± 5.47 | 83.92 ± 9.77 | 16.1 | 82.39 ± 3.10 | 17.6 | 77.30 ± 2.33 | 22.7 | 73.76 ± 2.68 | 26.2
